# “Also recorded” adds a separate entry of the source.
# Legend:
# [1] = system: ED-1(+) extrinsic macrophages; test: Extrinsic macrophage (ED-1(+)) recruitment into ON after rAION induction; assay type: in vivo, rodent
# Text: The present inventor has evaluated the location of early ON-macrophage activity following rAION induction, using antibodies for both general cellular inflammation (IBA-1) and extrinsic macrophages (detected by antibody to ED-1). […] Few, if any extrinsic macrophages are present in normal uninfarcted ON (results not shown). Following rAION induction, ED-1(+) extrinsic macrophages enter the ON and cluster in the primary ischemic lesion site immediately behind the retina/ON junction. Little extrinsic macrophage infiltration occurs >250 microns post-ON/retina junction. […] Control (vehicle treated animals) show a similar pattern (data not shown). […] Extrinsic macrophages extend beyond the initial lesion site, even during early axonal degeneration occurring 6 days post-induction. Thus, it is possible to administer intraventricular GM-CSF to recruit extrinsic macrophages into the ON following rAION, and determine whether the macrophage recruitment approach is useful to enhancing ON-axonal repair and regeneration following ON infarct.
# [2] = system: retinal ganglion cells (RGC); test: Stereological analysis of RGC numbers after rAION (ON stroke); assay type: in vivo, rat
# Protocol: Stereological analysis of RGC numbers in naïve and rAION induced rat retinae treated with either PGJ2 or Vehicle (PBS). Animals were injected IV 1Xd for 3 days with either 100 mg/kg PGJ2 or PBS-vehicle. Animals were euthanized and retinae analyzed 30 days post-rAION induction. Average numbers based on 4 retinae/group; RGC stereology derived from Brn3a (+) RGC immunostaining.
# Statistical analysis of 15-deoxy delta (12,14) PGJ2 administration to rats after optic nerve (ON) stroke. […] The ordinate represents the number of retinal ganglion cells in each retina. The abscissa represents the number of fields of cells counted to reach a statistically valid number as determined by the field of stereology. The green line represents the typical number of retinal ganglion cells in the untreated (naïve; no stroke) rat retina. The response of rat retina and optic nerve to vehicle treatment is shown in yellow. The response of PGJ2 treated animals is shown in Blue.
# rAION-associated cell loss is analyzed using stereological analysis.
# Rats were used for this experiment and ON stroke was administered to a 75% predicted loss of RGCs by the method of Bernstein et al., 2003, supra. RGC's were counted in each retina in the untreated (naïve; no stroke) and rats with rAION treated with PGJ2.
# [3] = system: optic nerve (ON) edema; test: ON edema after rAION by direct fundus observation in the living animal; assay type: in vivo, rat; conditions: post-infarct administration (systemic and intravitreal), first 3 days post-induction; 1-3 days following rAION
# Text: PGJ2-treated animals have 72.4% of the number of naïve RGCs compared with 34.3 for vehicle treated animals (black bar, FIG. 2).
molecule,measurement,setting,value
GM-CSF: Granulocyte-Macrophage Colony Stimulating Factor; directly activates macrophages and recruits extrinsic macrophages,numbers of ED-1(+) cells in ON,"[1]; 1 ug stereotactically injected into the superior colliculus, 6 days post-induction, vehicle controls show a similar pattern",decreased numbers of ED-1(+) cells
same,recruitment of ED-1(+) cells in rAION-induced ONs,"[1]; intraventricular injection, data not shown",significantly enhanced recruitment of ED-1(+) cells
same,ability to recruit extrinsic macrophages,"[1]; rAION, IBA-1 and ED-1 antibodies, data not shown",has the ability to recruit extrinsic macrophages
"CCCCC/C=C/C=C1/C(=O)C=C[C@@H]1C/C=C\CCCC(=O)O [PGJ2, 15 deoxy delta 12,14 prostaglandin J2]",RGC survival,[2]; 30 days post-rAION induction,increased RGC survival
same,number of RGCs relative to naïve RGCs,"[2]; rat rAION, IV 1Xd for 3 days, 100 mg/kg, 30 days post-rAION induction, Brn3a(+) RGC stereology",72.4%
same,preservation of the neurons whose axons comprise the optic nerve,"[2]; rats, ON stroke to a 75% predicted loss of RGCs, PGJ2 treatment after stroke",35-50%
same,ON edema,[3],reduced gross ON edema; also recorded: reduces ON edema

# Source: patent US8106096B2, “Compositions and methods for treatment of optic nerve diseases” (University of Maryland, Baltimore, priority 2008, dated 2012)
